# Measurements published in paper PMC5712788, “DM9 Domain Containing Protein Functions As a Pattern Recognition Receptor with Broad Microbial Recognition Spectrum” (Frontiers in Immunology, 2017).
# Molecular target: T1, CgDM9CP-1 (rCgDM9CP-1) (Magallana gigas, UniProt K1QRB6)
# T1 construct: gene CGI_10011001; recombinant, E. coli Transetta (DE3); two DM9 domains; mutants in pET-28a with N-terminal 6xHis; 5MH2 is D22A, 5MH3 is K43A
# T1 sequence (K1QRB6 1-143): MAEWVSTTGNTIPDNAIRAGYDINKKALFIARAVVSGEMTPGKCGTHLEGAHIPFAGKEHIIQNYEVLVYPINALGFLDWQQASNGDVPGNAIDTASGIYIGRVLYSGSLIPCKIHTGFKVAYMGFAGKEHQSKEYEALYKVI
# Assay: ITC
# Format: binding
# Details: 25°C, PBS (pH 7.2 in table, 7.4 in methods), N = 1
# From the text: ITC on CgDM9CP-1 (rCgDM9CP-1)
smiles,measurement,value
OC[C@H]1OC(O)[C@@H](O)[C@@H](O)[C@@H]1O (stereo partly drawn) [D-mannose],Kd,123 ± 19.7 µM
same,Value,8.16 ± 0.19 10^3 M^−1
